{"source": "patent US20160145580A1", "about": "“METHOD OF CULTURING CANCER STEM CELLS” (AGENCY FOR SCIENCE, TECHNOLOGY AND RESEARCH, priority 2013, published 2016)", "system": "MDA-MB-231 cells", "assay": "cells", "assay_type": "cell-based", "details": "Homo sapiens, MDA-MB-231, 48 h", "method": "Here, 250 μl of MDA-MB-231 cells in culture medium at cell density of 5.2×10^3 cells/ml was seeded onto the gels (0.2, 0.5, 1.0, 2.5 and 4.0 kPa). The culture medium was changed every 3 days. […] Then, the cells were washed with PBS and the fluorescence intensity was measured using the AlamarBlue cell viability assay as described above. Cell viability in the presence of anti-cancer drugs was normalized to the untreated control groups (0 μM).", "note": "Where two headings read alike, the source gives them in different places.", "data": [{"smiles": "COc1cccc2c1C(=O)c1c(O)c3c(c(O)c1C2=O)C[C@@](O)(C(=O)CO)C[C@@H]3O[C@H]1C[C@H](N)[C@H](O)[C@H](C)O1", "note": "[doxorubicin]", "values": [{"measurement": "viability at 100 µM", "setting": "read-out: cell viability, 100 μM doxorubicin, 48 hours, 0.2 and 0.5 kPa gels", "result": "~80", "unit": "%"}, {"measurement": "viability at 100 µM", "setting": "read-out: cell viability, 100 μM doxorubicin, 48 hours, HA-Tyr gels 2.5 and 4.0 kPa", "result": "~20", "unit": "%"}, {"measurement": "viability at 100 µM", "setting": "read-out: cell viability, 100 μM doxorubicin, 48 hours, cell culture plate", "result": "~10", "unit": "%"}]}]}
